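Following 48 hours of exposure in 96-well plates, responses at five concentrations were used to interpolate endpoints linearly. Here, GI50 denotes the concentration required for 50% inhibition of growth.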 The source made the active and inactive calls. Rule as the data show it: active = GI50 up to about 1.1 µM and inactive = higher.

From ChEMBL document CHEMBL1201862, “PubChem BioAssay data set” (2004) come the findings set out here.

Some test systems named below: SF-268; NCI-H23; HCT-15; OVCAR-3; RXF 393; A498; M19-MEL; IGROV-1; UACC-257; SK-OV-3; RPMI-8226; NCI-H460; HCT-116; EKVX; NCI-H522; SNB-19; TK-10.
Common to all, as to test: growth of human tumour cells (NCI), 48 h

Regarding `CC(C)(C)C(=O)ON1N=NC2C3CC(OCc4ccccc4)(OCc4ccccc4)C(O3)C21` (stereo not drawn), the GI50 in the experiment with SF-268 was 29.1 µM (inactive); in the experiment on NCI-H23, 19.6 µM (inactive); in the experiment with HCT-15, 20.1 µM; in the experiment on OVCAR-3 it was 16.9 µM (inactive); with RXF 393 it was 15.8 µM (inactive); with A498 it was 35.7 µM (inactive). The GI50 with M19-MEL was 15.8 µM (inactive); in the experiment with IGROV-1, 35.1 µM (inactive); with UACC-257 it was 13.7 µM (inactive); in the experiment on SK-OV-3, 53.1 µM (inactive); in the experiment with RPMI-8226, 7.38 µM (inactive); in the experiment on NCI-H460, 24 µM (inactive).

Consider `O=Cc1ccccc1OCCOc1cc(OCCOc2ccccc2C=O)c(OCCOc2ccccc2C=O)cc1OCCOc1ccccc1C=O`, for which the GI50 with SF-268 is 52.1 µM (inactive); in the experiment on NCI-H23, 56.5 µM (inactive); with HCT-116, 21.9 µM (inactive); with HCT-15, greater than 66.2 µM; in the experiment with EKVX it was 32.1 µM (inactive); with NCI-H522 it was > 86.9 µM (inactive). Also, the GI50 was > 100 µM (inactive) in the experiment on OVCAR-3; 29.6 µM (inactive) in the experiment with RXF 393; > 100 µM (inactive) with A498; > 100 µM (inactive) with M19-MEL; > 62.8 µM (inactive) in the experiment with IGROV-1; > 31.6 µM (inactive) in the experiment with SNB-19. Also, the GI50 in the experiment on UACC-257 is > 100 µM (inactive); in the experiment on TK-10, 42.6 µM (inactive); in the experiment with SK-OV-3, > 82.4 µM (inactive); in the experiment on RPMI-8226, 90.6 µM (inactive); in the experiment with NCI-H460 it was > 67.9 µM (inactive).

For `N#CC(C(=O)CCC(=O)Nc1cccc(C(F)(F)F)c1)c1ccccc1` (stereo not drawn), the GI50 was > 100 µM (inactive) with SF-268; > 100 µM (inactive) in the experiment with NCI-H23; > 100 µM (inactive) in the experiment on HCT-116; greater than 100 µM in the experiment with HCT-15; > 100 µM (inactive) with EKVX; > 100 µM (inactive) with NCI-H522. For the same compound, the GI50 in the experiment with OVCAR-3, with RXF 393, in the experiment on A498, in the experiment with M19-MEL, in the experiment with IGROV-1 and in the experiment on SNB-19 was > 100 µM (inactive) throughout. Also, the GI50 in the experiment with UACC-257, in the experiment with TK-10, in the experiment on RPMI-8226 and with NCI-H460 was > 100 µM (inactive) each time.

For `CCN(CC)C(=O)Cc1[nH][nH]c(=O)c1C(=O)N(CC)CC`, the GI50 with SF-268 was > 100 µM (inactive); in the experiment with NCI-H23, > 100 µM (inactive); in the experiment on HCT-116, > 100 µM (inactive); in the experiment on HCT-15, greater than 100 µM; in the experiment with EKVX, > 100 µM (inactive); in the experiment on NCI-H522, > 100 µM (inactive). Further, the GI50 in the experiment on OVCAR-3, in the experiment on RXF 393, in the experiment on A498, in the experiment with M19-MEL, with IGROV-1 and in the experiment on SNB-19 was > 100 µM (inactive) in each case. The GI50 in the experiment on UACC-257, in the experiment with TK-10, with SK-OV-3, in the experiment on RPMI-8226 and in the experiment with NCI-H460 was > 100 µM (inactive) in each case.

`CC(=O)CC(=O)/C=C/c1cccs1`: the GI50 in the experiment on SF-268 was 45 µM (inactive); with NCI-H23, > 100 µM (inactive); with HCT-116, 40.7 µM (inactive); in the experiment with HCT-15, 47.8 µM; in the experiment on EKVX it was > 100 µM (inactive); in the experiment with NCI-H522 it was 42.3 µM (inactive). The GI50 in the experiment with OVCAR-3 was > 100 µM (inactive); in the experiment on A498, 64.9 µM (inactive); with M19-MEL, 83.9 µM (inactive); in the experiment on IGROV-1, > 100 µM (inactive); in the experiment on SNB-19, > 100 µM (inactive); in the experiment on UACC-257, > 100 µM (inactive). The GI50 with TK-10 is > 100 µM (inactive); in the experiment on SK-OV-3, > 100 µM (inactive); in the experiment with RPMI-8226, 34.6 µM (inactive); in the experiment on NCI-H460 it was 64.1 µM (inactive).

Take `Cc1nc(C(N)=S)sc1C(=O)CC(=O)C(=O)Nc1c(C(C)C)cccc1C(C)C`: the GI50 in the experiment with SF-268 was > 100 µM (inactive); in the experiment with NCI-H23 it was 30.1 µM (inactive); with HCT-116, 38.7 µM (inactive); with HCT-15, 32.6 µM; in the experiment on EKVX, > 100 µM (inactive); in the experiment on NCI-H522, 18 µM (inactive). The GI50 in the experiment on OVCAR-3 was 18.3 µM (inactive); in the experiment on RXF 393, 20.3 µM (inactive); with A498, 71 µM (inactive); in the experiment with M19-MEL, 34.1 µM (inactive); in the experiment with IGROV-1, 61.4 µM (inactive); in the experiment with SNB-19, 45.8 µM (inactive). Moreover, the GI50 with UACC-257 is 60.4 µM (inactive); in the experiment on TK-10 it was > 100 µM (inactive); in the experiment on SK-OV-3, 36 µM (inactive); in the experiment with RPMI-8226 it was 55.8 µM (inactive); with NCI-H460, 40.5 µM (inactive).

Regarding `CN(C)CCNC(=O)c1cccc2nc3ccc4cccnc4c3nc12`, the GI50 in the experiment with SF-268 is 0.298 µM (active); in the experiment on NCI-H23, 0.294 µM (active); in the experiment with HCT-116, 0.0467 µM (active); in the experiment on HCT-15, 0.209 µM; in the experiment on EKVX, 0.507 µM (active); in the experiment with OVCAR-3, 0.61 µM (active). For the same compound, the GI50 with RXF 393 is 0.167 µM (active); in the experiment with A498 it was 0.214 µM (active); in the experiment with M19-MEL, 0.43 µM (active); in the experiment with IGROV-1, 0.359 µM (active); in the experiment with SNB-19, 0.362 µM (active); in the experiment with UACC-257, 0.447 µM (active). The GI50 was 0.107 µM (active) with TK-10, 0.469 µM (active) in the experiment on SK-OV-3 and 0.0565 µM (active) with NCI-H460.

Regarding `O=C(CC1(O)C(=O)Nc2ccccc21)c1ccc(O)cc1O` (stereo not drawn), the GI50 was > 100 µM (inactive) in the experiment with SF-268; > 100 µM (inactive) in the experiment on NCI-H23; > 100 µM (inactive) in the experiment on HCT-116; greater than 100 µM in the experiment with HCT-15; > 100 µM (inactive) with EKVX; > 100 µM (inactive) with NCI-H522. The GI50 in the experiment with OVCAR-3, with RXF 393, in the experiment with A498, in the experiment on M19-MEL, with IGROV-1 and in the experiment on SNB-19 was > 100 µM (inactive) throughout. For the same compound, the GI50 with UACC-257, in the experiment with TK-10, in the experiment with SK-OV-3, in the experiment with RPMI-8226 and in the experiment on NCI-H460 was > 100 µM (inactive) each time.

Regarding `Nc1ncnc2c1ncn2C1CC(OC2CCCCO2)C(CO)O1` (stereo not drawn), the GI50 in the experiment with SF-268 was > 100 µM (inactive); with NCI-H23 it was > 100 µM (inactive); in the experiment with HCT-116, > 100 µM (inactive); in the experiment with HCT-15 it was greater than 100 µM; in the experiment on EKVX, 67.5 µM (inactive); in the experiment on NCI-H522 it was > 100 µM (inactive). For the same compound, the GI50 in the experiment with OVCAR-3, in the experiment with RXF 393, in the experiment with A498, with M19-MEL, with IGROV-1 and in the experiment on SNB-19 was > 100 µM (inactive) throughout. The GI50 in the experiment on UACC-257, in the experiment with TK-10, in the experiment on SK-OV-3, in the experiment with RPMI-8226 and in the experiment with NCI-H460 was > 100 µM (inactive) each time.

For `O=C1Nc2cc([N+](=O)[O-])c(Br)cc2C1=O`, the GI50 in the experiment with SF-268 is 20.9 µM (inactive); with NCI-H23, 17.3 µM (inactive); in the experiment on HCT-15, 18.9 µM; in the experiment with EKVX, 22.4 µM (inactive); in the experiment on NCI-H522 it was 16.6 µM (inactive); with OVCAR-3, 18.1 µM (inactive). Moreover, the GI50 with RXF 393 is 24.7 µM (inactive); in the experiment with A498, > 100 µM (inactive); with M19-MEL, 16.4 µM (inactive); in the experiment on IGROV-1, 17.5 µM (inactive); with SNB-19, > 10 µM (inactive); with UACC-257 it was 18 µM (inactive). Moreover, the GI50 is > 100 µM (inactive) in the experiment on TK-10, 17.5 µM (inactive) in the experiment with SK-OV-3, 17.6 µM (inactive) with RPMI-8226 and 30.5 µM (inactive) with NCI-H460.

In the case of `COC(=O)/C(=N/NC(N)=O)C(C(=O)OC)C(=O)C(=O)Nc1ccc(Cl)cc1` (stereo not drawn), the GI50 is > 100 µM (inactive) with NCI-H23; > 70.6 µM (inactive) in the experiment with HCT-116; greater than 86.5 µM with HCT-15; > 100 µM (inactive) in the experiment with EKVX; > 100 µM (inactive) in the experiment with NCI-H522; > 100 µM (inactive) with OVCAR-3. For the same compound, the GI50 in the experiment on RXF 393, with A498, in the experiment on M19-MEL, in the experiment with IGROV-1, in the experiment on SNB-19 and with UACC-257 was > 100 µM (inactive) throughout. Moreover, the GI50 was > 100 µM (inactive) in the experiment with TK-10, > 100 µM (inactive) in the experiment on SK-OV-3, > 100 µM (inactive) in the experiment with RPMI-8226 and > 71.3 µM (inactive) with NCI-H460.

On to `CCCCCCCCCC(=O)OCC1OC(n2cc(F)c(=O)[nH]c2=O)C(N)C(OC(=O)CCCCCCCCC)C1O` (stereo not drawn), for which the GI50 was 20.2 µM (inactive) in the experiment on SF-268; 18.7 µM (inactive) with NCI-H23; 18.2 µM (inactive) with HCT-116; 18.2 µM with HCT-15; 18.2 µM (inactive) with EKVX; 14.6 µM (inactive) in the experiment on NCI-H522. The GI50 is 18.6 µM (inactive) in the experiment on OVCAR-3; 15.9 µM (inactive) with RXF 393; 15.5 µM (inactive) in the experiment with A498; 17.4 µM (inactive) with M19-MEL; > 100 µM (inactive) in the experiment with IGROV-1; 17.4 µM (inactive) in the experiment on SNB-19. Also, the GI50 in the experiment on UACC-257 is 20 µM (inactive); in the experiment on TK-10 it was 36.1 µM (inactive); in the experiment on SK-OV-3, 60 µM (inactive); in the experiment with RPMI-8226, 21.5 µM (inactive); with NCI-H460, 19.4 µM (inactive).
